The text below walks through data of patent US20090198145A1, “COMPOSITIONS, METHODS, AND SYSTEMS FOR RAPID INDUCTION AND MAINTENANCE OF […] SLEEP” (priority 2008, published 2009).

One assay concerns surgical patients. The note with it: over 80 patients; GABA-A agonist (e.g., propofol) and adjunctive medications.
In another assay the test system is rats. Particulars: intravenous, over a 6 hour period; cited from earlier work.
Assay [1] has as its system patient with chronic depression and post-traumatic stress disorder.
Setting [2] is: Patient A, same regimen, follow-up.

From the text for surgical patients: This invention describes the discoveries that control, monitor, and administer the hypnotic or sedative agent such as a GABA-A agonist (e.g., propofol) and adjunctive medications at designed dosages, timing, and modes of administration to produce dreams and an unique sleep state of un-fragmented Continuous REM Sleep.

In the case of `CC(C)c1cccc(C(C)C)c1O` [propofol, 2-6 diisopropylphenol], the “achievement of Continuous REM Sleep” value in the assay on surgical patients is “achieved Continuous REM Sleep”. Moreover, the “replication of natural sleep cycle” value in the assay on rats is “replicate a natural sleep cycle”. In addition, in assay [1] (Patient A, same regimen, Continuous REM Sleep of approximately 1 hour), the “patient-reported sleep recovery after the procedure” value is listed as “felt extremely rested”. In assay [1] (setting [2]), the “duration of improved ease of sleeping post-operatively” value was “three” and the nightmares on follow-up entry was “lack of nightmares”. Further, the “dreaming reported during the procedure” value in assay [1] (human, in vivo) is “profuse dreaming about gardening”.
